One assay has as its target M^pro L50F/E166A/L167F (Severe acute respiratory syndrome coronavirus 2, UniProt P0DTD1, E3429A/L3313F/L3430F). The conditions noted are these: for K M / k cat: pH 7.6.
Assay [1] addresses SARS-CoV-2 M^pro L50F/E166A/L167F (Severe acute respiratory syndrome coronavirus 2, UniProt P0DTD1, E3429A/L3313F/L3430F). Format: biochemical.

“And” between values parts separate entries of the source, which are not always exact repeats. Equal values may be shown once.

2-Abz-KTSAVLQ↓SGY^(NO2)RKME-OH: on M^pro L50F/E166A/L167F, the Km was determined as 250 µM, the “K M” value is 250 µM and the k cat turned out to be 0.19 ± 0.04 s⁻¹.

Take 2-Abz-SVTLQ↓SGY^(NO2)R-OH: on M^pro L50F/E166A/L167F, the Km was determined as 320 µM; the “lower catalytic efficiency of the M^pro triple mutant compared to the WT M^pro” value is listed as roughly 35 times; the “K M” value was 320 µM; the k cat was 0.26 s⁻¹ and 0.26 ± 0.05 s⁻¹.

As to `COc1cccc2[nH]c(C(=O)N3C[C@H](C(F)(F)F)C[C@H]3C(=O)N[C@H](C#N)C[C@@H]3CCNC3=O)cc12` [compound 1], the “inhibition of L50F/E166A/L167F, result in words” value (“inhibition of L50F/E166A/L167F” below) in assay [1] was “inactive”.

As for `CC(C)C[C@H](NC(=O)OCc1cccc(F)c1)C(=O)N[C@@H](Cc1cscn1)C(O)S(=O)(=O)O` (some centres unmarked) [compound 2], the “inhibition of L50F/E166A/L167F” value in assay [1] is reported as “does not significantly alter binding potency”.

`O=C(NC(Cc1ccccc1)C(=O)NC(CC1CCNC1=O)C(O)S(=O)(=O)O)OCc1cccc(F)c1` (centres unmarked) [compound 3]: the “inhibition of L50F/E166A/L167F” value in assay [1] was “inactive”.

Regarding `COc1cccc2[nH]c(C(=O)NC(CC3CC3)C(=O)NC(CC3CCNC3=O)C(O)S(=O)(=O)O)cc12` (centres unmarked) [compound 4], in assay [1], the “improvement in inhibition compared to nirmatrelvir” value is on record as “approximately 30 fold”.
